Patent US9981983B2, “Thienopyranones as kinase inhibitors” (SignalRx Pharmaceuticals, Inc., priority 2008, dated 2018)

How the values were obtained:
Assay type in all cases: cell-based
DU145 (Prostate) = assay: Cell proliferation MTS assay, DU145; settings: Homo sapiens, DU-145, 72 hours
Method: All cell lines were obtained from ATCC and cultured and plated according to ATCC recommendations. Cells were cultured in complete culture media containing 10% heat-inactivated fetal bovine serum (FBS, Mediatech, Inc.). For adherent cell lines, once cells reached 70% confluency, they were trypsinized and resuspended in phenol red free RPMI media (Mediatech, Inc.) plus 10% heat-inactivated FBS (assay buffer) and 100 μL aliquots were plated into each well of 96-well microtiter plates at a final density of 1,000-2,000 cells/well. Cells were incubated overnight at 37° C. in 5% CO2, and treated with test compounds on the next day. For suspension cell lines, cells were resuspended in assay buffer, plated into 96-well microtiter plates at a density of 10^4-10^5 cells/well/100 μL, and treatment was started on the same day. Cells were treated with vehicle (DMSO) and test compounds for 72 hours at concentration of 100, 70, 40, 20, 10, 5, 2.5, 1.25, 0.5 and 0.2 μM in four replicates at 37° C. in 5% CO2.

pAKT in BT-474 cells = assay: pAKT status DM50, BT-474; settings: Homo sapiens; BT-474, breast cancer
Method: PC3 cells were obtained from the American Type Culture Collection (ATCC, Manassas, Va., Cat.# CRL-1435). Two million cells from the prostate cancer line PC3 were placed into 6 cm culture dishes and allowed to grow in complete RPMI 1640 media (Invitrogen, Carlsbad, Calif., Cat.#22400-105) with 10% fetal bovine serum (Invitrogen, Carlsbad, Calif., Cat.#10438-026). After this time period the cells were serum starved for 5 hours followed by application of the test compound. Test compound was added as a DMSO (dimethyl sulfoxide) solution such that the final DMSO concentration in the cell media was less than or equal to 0.2% by volume After 30 minutes of exposure the growth factor stimulant, human IGF-1 (PeproTech, Inc., Rocky Hill, N.J., Cat.#100-11), was added to a final concentration of 0.1 μg/ml in each well. After 30 minutes of IGF-1 exposure, cells were removed from the media and cell lysates were prepared using RIPA Lysis buffer (Upstate, Lake Placid, N.Y., Cat.#20-188), keeping on ice. The pAKT serine 473 level was measured in duplicate samples of the cell lysates using commercially available assays such as the Pathscan® Sandwich ELISA kit for Ser473 pAKT (Cell Signaling, Danvers, Mass., Cat.#7160). A SpectraMax Plus spectrophotometric plate reader (Molecular Devices, Sunnydale, Calif.) was used to measure the optical density signal for pAKT at 450 nm (OD450 nm). The pAKT OD450 nm readings were normalized by total protein amount in the cell lysates determined by standard methods.
Concentrations of test compounds required to inhibit IGF stimulated pAKT levels to 50% of maximum levels in PC3 cells (termed DM50 for decreased maximum 50%) were calculated by inputting the dose responses in the software package GraphPad Prism4 (GraphPad Software, Inc., San Diego, Calif.).
Several other cancer cell lines were obtained from ATCC and grown according to the supplier's recommendations and treated with test compounds. DM50 values listed in Table 6 below were obtained by the methods described in Example A: […]

BT-474 cells = assay: Cellular proliferation (Example B method), BT-474; settings: Homo sapiens; BT-474, breast cancer
Method: PC3 cells were obtained from the American Type Culture Collection (ATCC, Manassas, Va., Cat.# CRL-1435) Two thousand cells from the prostate cancer line PC3 were placed in 50 μL of complete RPMI 1640 media (Invitrogen, Carlsbad, Calif., Cat.#22400-105) with 10% fetal bovine serum (Invitrogen, Carlsbad, Calif., Cat.#10438-026) into each well of 96 well cell culture plates in a hexaplicate sampling pattern. A 50 μL aliquot of test compound (prepared from stock test compounds in DMSO diluted into media) was added to the appropriate well such that the final concentrations of test compound were 200, 40, 8, 1.6, 0.32, 0.064, 0.0128, 0.00256, and 0 μM and the final DMSO concentration was less than or equal to 0.2%.
The plates were incubated for 72 hours 37° C. in an atmosphere of 5% CO2. At the end of this time a 10 μL aliquot of WST solution (Roche Applied Science, Mannheim, Germany) was added into each of the wells. Cells were exposed to the WST solution for 4 hours. A SpectraMax Plus spectrophotometric plate reader (Molecular Devices, Sunnydale, Calif.) was then used to measure the optical density at 450 nm (OD450 nm). Sigmoidal curves were drawn for the dose responses and IC50 values were calculated using the software package GraphPad Prism4 (GraphPad Software, Inc., San Diego, Calif.).
Several other cancer cell lines were obtained from ATCC and grown according to their recommendations and treated with test compounds to obtain the concentration of test compound that inhibited the cellular proliferation by 50% of no-treatment controls. These IC50 values (μM) are listed in Table 7 below obtained by the methods described in Example B: […]

MCF7 breast cancer cells = assay: Mammosphere cancer stem cell inhibition assay; settings: first experiment; for number of mammospheres: control 38±4
Method: A mammosphere cancer stem cell inhibition assay was set up using literature methods (T. M. Phillips et al. J. Natl. Cancer I. 2006, 98, 1777-1785, “Mammalian target of rapamycin contributes to the acquired apoptotic resistance of human mesothelioma multicellular spheroids”) using a subset of MCF7 breast cancer cells that posses the ability to evade anchorage independent apoptosis. Commercially available MCF7 breast cancer cells were cultured in MEM supplemented with 0.01 mg/mL of bovine insulin and 10% FBS at 37° C. in humidified atmosphere (5% CO2). Floating cells in the 2-day cultures were collected, washed, and resuspended in DMEM-F12 (50:50) supplemented with 0.4% BSA, 5 μg/mL bovine insulin, 20 ng/mL bFGF, and 10 ng/mL EGF. Cells were then passed through a […] sieve to remove any cell clusters and adjusted to a density of 10,000 cells/mL. Approximately 500 cells were plated in quadruplicate in a sterile poly-HEMA-treated 96-well plate. Cells were then treated with either control or test solutions consisting of the kinase inhibitor Lapatinib (1 μM), Cpd 28 (1 or 10 μM), Cpd 55 (1 or 10 μM), The numbers of mammospheres (clusters of cells numbering more than 4 or 5 per cluster) were then counted after 5-7 days.

IC50 (DU145 (Prostate)): 2070 nM
IC50 (pAKT in BT-474 cells): 307 nM
IC50 (BT-474 cells): 3780 nM
SMILES: O=c1cc(N2CCOCC2)oc2c(-c3ccc4c(c3)OCCO4)csc12 [Compound 28, 3-(2,3-dihydrobenzo[b][1,4]dioxin-6-yl)-5-morpholino-7H-thieno[3,2-b]pyran-7-one]
inhibition of mammosphere production versus control (MCF7 breast cancer cells; 1 μM): approximately 60%
number of mammospheres (MCF7 breast cancer cells; 1 μM): 15±2 mammospheres
inhibition of mammosphere production versus control (MCF7 breast cancer cells; 10 μM): approximately 88%
number of mammospheres (MCF7 breast cancer cells; 10 μM): 5±1 mammospheres
